Here are results for 13 molecules from patent US20120172369A1 (priority 2009, published 2012).

SMILES strings stand for the structures.

For this assay, the target named is T1, human DGAT1 enzyme (Homo sapiens, UniProt O75907).
T1 construct: made in house; host or cells: Sf9 insect cells (microsomal membranes)
T1 sequence (O75907 1-488): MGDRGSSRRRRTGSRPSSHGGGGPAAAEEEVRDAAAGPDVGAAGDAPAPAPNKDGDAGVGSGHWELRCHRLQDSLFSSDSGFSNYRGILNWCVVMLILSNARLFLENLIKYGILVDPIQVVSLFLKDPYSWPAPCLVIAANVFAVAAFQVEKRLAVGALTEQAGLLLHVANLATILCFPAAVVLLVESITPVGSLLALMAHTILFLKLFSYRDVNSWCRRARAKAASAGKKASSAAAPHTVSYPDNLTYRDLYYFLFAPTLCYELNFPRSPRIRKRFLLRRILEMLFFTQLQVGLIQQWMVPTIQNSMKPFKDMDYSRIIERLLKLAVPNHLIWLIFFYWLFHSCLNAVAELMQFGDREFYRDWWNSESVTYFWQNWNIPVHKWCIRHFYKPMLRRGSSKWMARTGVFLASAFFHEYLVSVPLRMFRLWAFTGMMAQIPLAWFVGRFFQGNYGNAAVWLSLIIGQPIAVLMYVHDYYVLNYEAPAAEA
The assay is described as follows: in vitro DGAT1 inhibition assay (microsomes, [14C]-palmitoyl-CoA, SPA beads). The format is biochemical. The following applies: human DGAT1 expressed in Sf9 insect cells, microsomes; 2 hours at room temperature; read-out: IC50. The protocol:
The in vitro assay to identify DGAT1 inhibitors uses human DGAT1 enzyme expressed in Sf9 insect cells prepared as microsomes. The reaction was initiated by the addition of the combined substrates 1,2-dioleoyl-sn-glycerol and [^14C]-palmitoyl-Co A and incubated with test compounds and microsomal membranes for 2 hours at room temperature. The assay was stopped by adding 0.5 mg wheat germ agglutinin beads in assay buffer with 1% Brij-35 and 1% 3-cholamidopropyldimethyl-ammonio-1-propane sulfonate. Plates were sealed with TopSeal and incubated for 18 hours to allow the radioactive triglyceride product to come into proximity with the bead. Plates were read on a TopCount instrument.
Percent inhibition was calculated as the percent of (test compound inhibition minus non-specific binding) relative to (total binding minus non-specific binding). IC50 values were determined by curve fitting the data to a Sigmoidal dose-response in GraphPad Prism utilizing the following equation:
Y=A+(B−A)/(1+10̂((Log IC50−X))),
where A and B are the bottom and top of the curve (highest and lowest inhibition), respectively, and X is the logarithm of concentration.
One may read the IC50 as the point on the concentration scale where inhibition reaches its midpoint. Consider `Cc1c(C(=O)Nc2ccc(N3CCN(C(=O)Cc4c(F)cccc4F)CC3)nc2)oc2ccccc12` [Example 4, N-(6-(4-(2-(2,6-difluorophenyl)acetyl)piperazin-1-yl)pyridin-3-yl)-3-methylbenzofuran-2-carboxamide], for which the IC50 came to 46 nM.
Turning to `Cc1c(C(=O)Nc2ccc(N3CCC(COc4cccc(C(=O)O)c4)CC3)nc2)oc2ccc(-c3ccccc3F)cc12` [Example 26, 3-((1-(5-(5-(2-fluorophenyl)-3-methylbenzofuran-2-carboxamido)pyridin-2-yl)piperidin-4-yl)methoxy)benzoic acid], the IC50 stood at 59 nM.
Regarding `Cc1c(C(=O)Nc2ccc(N3CCN(C(=O)Nc4ccccc4C(=O)O)CC3)nc2)sc2ccc(-c3ccccc3)cc12` [Example 53, 2-(4-(5-(3-methyl-5-phenylbenzo[b]thiophene-2-carboxamido)pyridin-2-yl)piperazine-1-carboxamido)benzoic acid], the IC50 was 27 nM.
`Cc1c(C(=O)Nc2ccc(N3CCC(OCc4cccc(C(=O)O)c4)CC3)nc2)oc2ccc(-c3ccc(F)cc3)cc12` [Example 37, 3-((1-(5-(5-(4-fluorophenyl)-3-methylbenzofuran-2-carboxamido)pyridin-2-yl)piperidin-4-yloxy)methyl)benzoic acid]: the IC50 stood at 106 nM.
Take `Cc1c(C(=O)Nc2ccc(N3CCN(C(=O)Nc4ccccc4F)CC3)nc2)sc2ccc(-c3cccc(F)c3)cc12` [Example 54, N-(2-fluorophenyl)-4-(5-(5-(3-fluorophenyl)-3-methylbenzo[b]thiophene-2-carboxamido)pyridin-2-yl)piperazine-1-carboxamide]: the IC50 worked out at 220 nM.
Turning to `COc1ccccc1-c1ccc2oc(C(=O)Nc3ccc(N4CCN(C(=O)Nc5ccccc5C(=O)O)CC4)nc3)c(C)c2c1` [Example 70], the IC50 amounted to 1090 nM.
Regarding `COC(=O)c1cccc(COC2CCN(c3ccc(NC(=O)c4oc5ccc(-c6ccc(F)cc6)cc5c4C)cn3)CC2)c1` [Example 35, methyl 3-((1-(5-(5-(4-fluorophenyl)-3-methylbenzofuran-2-carboxamido)pyridin-2-yl)piperidin-4-yloxy)methyl)benzoate], the IC50 was 38 nM.
Turning to `Cc1c(C(=O)Nc2ccc(N3CCN(C(=O)Nc4ccccc4C(=O)O)CC3)nc2)oc2ccc(-c3ccc(F)cc3)cc12` [Example 36, 2-(4-(5-(5-(4-fluorophenyl)-3-methylbenzofuran-2-carboxamido)pyridin-2-yl)piperazine-1-carboxamido)benzoic acid], the IC50 was 90 nM.
As for `COc1ccccc1-c1ccc2oc(C(=O)Nc3ccc(N4CCC(COc5cccc(C(=O)O)c5)CC4)nc3)c(C)c2c1` [Example 71], the IC50 came out at 171 nM.
The value for `CCOC(=O)c1ccccc1NC(=O)N1CCN(c2ccc(NC(=O)c3sc4ccc(-c5ccccc5)cc4c3C)cn2)CC1` [Example 50, ethyl 2-(4-(5-(3-methyl-5-phenylbenzo[b]thiophene-2-carboxamido)pyridin-2-yl)piperazine-1-carboxamido)benzoate] was 2330 nM; that for `Cc1ccc2c(C)c(C(=O)Nc3ccc(N4CCC(OCc5cccc(C(=O)O)c5)CC4)nc3)oc2c1C` [Example 87, 3-((1-(5-(3,6,7-trimethylbenzofuran-2-carboxamido)pyridin-2-yl)piperidin-4-yloxy)methyl)benzoic acid] was 22 nM.
As to `Cc1c(C(=O)Nc2ccc(N3CCC(COc4cccc(C(=O)O)c4)CC3)nc2)oc2ccc(Cc3ccccc3)cc12` [Example 93, 3-((1-(5-(5-benzyl-3-methylbenzofuran-2-carboxamido)pyridin-2-yl)piperidin-4-yl)methoxy)benzoic acid], the IC50 came out at 56 nM.
The value for `Cc1c(C(=O)Nc2ccc(N3CCC(OCc4cccc(C(=O)O)c4)CC3)nc2)sc2ccc(-c3ccccc3)cc12` [Example 51, 3-((1-(5-(3-methyl-5-phenylbenzo[b]thiophene-2-carboxamido)pyridin-2-yl)piperidin-4-yloxy)methyl)benzoic acid] was 28 nM.
